US6593342B1, “Pharmaceutical compositions comprising 2-quinolones” (Laboratoire L. Lafon, priority 1998, dated 2003)

How the values were obtained:
[1] = tested on: hormone-sensitive mouse mammary adenocarcinoma MXT (HS-MXT); experiment: In vivo antitumor activity, mouse mammary adenocarcinoma HS-MXT
Method: (§1) 4.—In Vivo Antitumor Activity in Combination With a Cytotoxic Agent
(§2) The tests were carried out on models of:
hormone-sensitive mouse mammary adenocarcinoma MXT (HS-MXT),
(§3) in the presence or absence of cytotoxic agents such as cyclophosphamide, etoposide, doxorubicin or vincristine.
(§4) When the MTD value of a product was determined, its in vivo antitumor activity was characterized at doses of MTD/2, MTD/4 and MTD/8 on the model of mouse mammary adenocarcinoma HS-MXT and on the model of lymphoma P 388.
(§5) In all the examples presented below, irrespective of the model (mammary adenocarcinoma HS-MXT or lymphoma P 388), the control condition is represented by a batch of 9 mice to which is administered for 5 consecutive weeks and at a rate of 5 administrations (Monday, Tuesday, Wednesday, Thursday and Friday) per week a volume of 0.2 ml of physiological saline containing the solvent used to dissolve the various compounds of formulae (I) and (Ia) used.
The following parameters were determined in these tests:
(§6) i)—The survival rate of the mice
(§7) This survival rate was calculated in the form of a ratio T/C:
(§8) This ratio represents the average survival time of the median mouse from the batch of treated mice relative to the average survival time of the median mouse from the batch of control mice. Thus, a molecule induces a significant (P<0.05) increase in the survival of the animals when the index T/C exceeds 130%. Conversely, it has a toxic effect when this value of T/C is less than 70%.
ii)—The tumor growth [lacuna] by measuring the area of the grafted HS-MXT or P 388 tumors twice a week (Monday and Friday). This area is calculated by multiplying the values of the largest two perpendicular axes of the tumor. The value of these axes is measured using a sliding caliper.
The model of hormone-sensitive MXT (HS-MXT) mouse mammary adenocarcinoma grafted onto 4- to 6-week-old B6D2F1/JIco mice is derived from the milk ducts of the mammary gland (Watson C. et al. Cancer Res. 1977; 37: 3344-48).
Compound 1 is administered alone. The first injection of the product is carried out on the seventh day post-grafting (D7) for four consecutive weeks at a rate of 5 injections per week (Monday, Tuesday, Wednesday, Thursday and Friday) and at a dose of 20 mg/kg.
Cyclophosphamide (CPA) is administered alone. The first injection of the product is carried out on the fourteenth day post-grafting (D14) for three consecutive weeks at a rate of 3 injections per week (Monday, Wednesday and Friday) and at a dose of 10 mg/kg.
Compound 1 is co-administered with cyclophosphamide. In this case, the first injection of compound 1 is carried out on the seventh day post-grafting (D7) for four consecutive weeks at a rate of 5 injections per week (Monday, Tuesday, Wednesday, Thursday and Friday) at a dose of 20 mg/kg, and the first injection of cyclophosphamide is carried out on the fourteenth day post-grafting (D14) for three consecutive weeks at a rate of 3 injections per week (Monday, Wednesday and Friday) at a dose of 10 mg/kg.
Etoposide (ETO) is administered alone. The first injection of the product is carried out on the fourteenth day post-grafting (D14) for three consecutive weeks at a rate of 3 injections per week (Monday, Wednesday and Friday) and at a dose of 10 mg/kg.
Doxorubicin (DOX) is administered alone. The first injection of the product is carried out on the fourteenth day post-grafting (D14) for three consecutive weeks at a rate of 3 injections per week (Monday, Wednesday and Friday) and at a dose of 5 mg/kg.
Compound 1 is co-administered with etoposide.

lymphoma P 388 = experiment: In vivo antitumor activity, lymphoma P 388; set-up: species or system mouse; settings: Table IX; subcutaneous P 388 in CDF1 mice; compound 1 or 20 40 mg/kg 5/week from D5, 5 weeks; VCR 0.63 mg/kg 3/week from D5, 3 weeks
Method: as §1, §2, §3, §4, §5, §6, §7, §8
4- to 6-week-old CDF1 mice are grafted with a piece of P 388 tumor (from a tumor bank maintained in the laboratory) subcutaneously into the right flank on day D0. In order to be under conditions close to clinical reality, we waited until the 5th day post-grafting (D5) before starting the treatment. The reason for this was that, after this period of time, the subcutaneous P 388 tumors are palpable.
Compound 1 is administered alone. The first injection of the product is carried out on the 5th day post-grafting (D5) at a rate of 5 injections per week (Monday, Tuesday, Wednesday, Thursday and Friday) for five consecutive weeks-and at a dose of 40 mg/kg.
Compound 20 is administered alone. […]

[2] = Table V, HS-MXT in B6D2F1/JIco mice, compound 1 20 mg/kg 5/week from D7, 4 weeks, ETO 10 mg/kg or DOX 5 mg/kg 3/week from D14, 3 weeks

Q: Which results are given for `O=P1(N(CCCl)CCCl)NCCCO1` (stereo not drawn) [CPA, Cyclophosphamide]?
A: T/C (survival) ([1]; Table IV, HS-MXT in B6D2F1/JIco mice, compound 1 20 mg/kg 5 injections/week from D7, 4 weeks, CPA 10 mg/kg 3 injections/week from D14, 3 weeks): 122%; Tumor area, reduction (−) or increase (+) compared with control ([1]; Table VI, HS-MXT tumors, 31st day after graft, 19 administrations of compound 1 (20 mg/kg), 8 of cyclophosphamide (10 mg/kg)): −23.6%

Q: `COc1cccc2c1C(=O)c1c(O)c3c(c(O)c1C2=O)C[C@@](O)(C(=O)CO)C[C@@H]3O[C@H]1C[C@H](N)[C@H](O)[C@H](C)O1` [DOX, Doxorubicin] was tested. Which “T/C (survival)” value [1, 2] did it give?
A: 92.5%

Q: What does the source list for `COc1cc([C@@H]2c3cc4c(cc3[C@@H](O[C@@H]3O[C@@H]5CO[C@@H](C)O[C@H]5[C@H](O)[C@H]3O)[C@H]3COC(=O)[C@H]23)OCO4)cc(OC)c1O` [ETO, Etoposide]?
A: T/C (survival) [1, 2]: 130%; T/C (survival) ([1]; Table VII, HS-MXT, compound 21 40 mg/kg 5/week from D7, 5 weeks, ETO 10 mg/kg 3/week from D7, 3 weeks): 124%

Q: `CC[C@]1(O)C[C@H]2CN(CCc3c([nH]c4ccccc34)[C@@](C(=O)OC)(c3cc4c(cc3OC)N(C=O)[C@H]3[C@@](O)(C(=O)OC)[C@H](OC(C)=O)[C@]5(CC)C=CCN6CC[C@]43[C@@H]65)C2)C1` [VCR, Vincristine, reference compound] was tested. Which “T/C (survival)” value (lymphoma P 388) did it give?
A: 122%
